Publication PMC10714399, “Open Source Antibiotics: Simple Diarylimidazoles Are Potent against Methicillin-Resistant Staphylococcus aureus” (ACS Infectious Diseases, 2023)
Values after ≈ are worked out from the molar mass of the structure shown.

Tests used:
molecular beacon DNA = test: DNA binding assay (molecular beacon melt curve); conditions: compound 0-5 μM, DNA 400 nM
Description: An attempt to characterize the mechanism of toxicity led to testing compounds’ interactions with DNA molecular beacons, which are short strands of DNA tagged with a donor–acceptor pair of fluorophores. The proximity between the fluorophores when the DNA strand is correctly folded results in no fluorescence from the donor; should a compound interfere with DNA folding, a change in the melting temperature will be observed.
A molecular beacon DNA sequence [FAM] CGTATATATATATTTTTATATATATACG [TAM] (Eurofin Genomics, Germany) labeled with fluorescein–tetramethylrhodamine donor–acceptor pair was dissolved in nuclease-free water at 100 μM, aliquoted, and kept frozen at −20 °C.
A working 2 μM DNA solution and compound dilution at 2 and 20 μM in hybridization buffer (10 mM Tris, 1 mM EDTA, 50 mM NaCl, 1.5 mM MgCl2 pH 8) was made. DNA was annealed by heating up to 95 °C on a heat block and allowing to cool down to room temperature. […]
Measurements on the prepared plates were made on an Applied Biosystems 7500/7500 FastReal-Time PCR System (ThermoFisher, UK). A standard melt curve experiment was setup where temperature was ramped up from 15 to 90 °C at a 1% step gradient and fluorescence was monitored for filters 1 (FAM) and 3 (TAMRA). Fluorescence first derivatives against temperature were exported to Microsoft Excel and peak fitting was done using Origin 2022B.

[1] = test system: Cryptococcus neoformans H99 ATCC 208821; test: CO-ADD antifungal assay, C. neoformans; type: cell-based; conditions: ATCC208821
Procedure: Hit Confirmation of active compounds by whole cell growth inhibition assays was conducted as an 8-point dose response to determine the Minimum Inhibitory Concentration (MIC), in duplicate (n=2). The inhibition of growth is measured against those microorganisms that […]
Included in the Hit Confirmation were 5 bacteria: Escherichia coli, Klebsiella pneumoniae, Acinetobacter baumannii, Pseudomonas aeruginosa and Staphylococcus aureus, and 2 fungi Candida albicans and Cryptococcus neoformans.
In addition to determining MIC, active compounds were counter screened for cytotoxicity against a human embryonic kidney cell line, HEK293, by determining their CC50 value. The compounds were also screened for haemolysis of human red blood cells.
Assay Parameters Bacteria Fungi HEK293 Haemolysis […]
Duplicate (n=2) Duplicate (n=2) Duplicate (n=2) Duplicate (n=2)
QC Control MIC: Control MIC: Control CC50: Control HC10:
Non-Binding Non-Binding TC, 384-well Polypropylene […]
Fungi strains were cultured for 3 days on Yeast Extract-Peptone Dextrose (YPD) agar at 30 °C. A yeast suspension of 1 x 10^6 to 5 x 10^6 CFU/mL (as determined by OD530) was prepared from five colonies. […]
In both cases, the percentage of growth inhibition was calculated for each well, using the negative control (media only) and positive control (fungi without inhibitors) on the same plate. […]
(§1) Reading Plates - Haemolysis Clear 384w Corning 3680 […]

human red blood cells = type: cell-based; conditions: red cells of human, 20 h
Procedure: (§2) The absorbance was measured using a Tecan M1000 Pro monochromator plate reader.
(1 picture or pasted object on this page, not shown here)

in vitro = type: cell-based; conditions: human
Procedure: HEK293 cells were counted manually in a Neubauer haemocytometer and then plated in the 384-well plates containing the compounds to give a density of 5000 cells/well in a final volume of 50 µL. DMEM supplemented with 10% FBS was used as growth media and the cells were incubated together with the compounds for 20 h at 37 °C in 5% CO2.
Cytotoxicity (or cell viability) was measured by fluorescence, ex: 560/10 nm, em: 590/10 nm (F560/590), after addition of 5 µL of 25 µg/mL resazurin (2.3 µg/mL final concentration) and after incubation for further 3 h at 37 °C in 5% CO2. The fluorescence intensity was measured using a Tecan M1000 Pro monochromator plate reader, using automatic gain calculation. […]
Human whole blood was washed three times with 3 volumes of 0.9% NaCl and then resuspended in same to a concentration of 0.5 x 10^8 cells/mL, as determined by manual cell count in a Neubauer haemocytometer. […]
Haemolysis was determined by measuring the supernatant absorbance at […] (OD405).
as §2
HC10 and HC50 (concentration at 10% and 50% haemolysis, respectively) were calculated by curve fitting the inhibition values vs. log(concentration) using a sigmoidal dose-response function with variable fitting values for top, bottom and slope. […]
as §1

[2] = HEK293 toxicity, 96-well dose-response (UCL; MTT or resazurin, with or without recovery); type: cell-based, human; conditions: human, HEK293 cells; across protocol variations (recovery yes/no, MTT/resazurin); read-out: CC50 HEK293
Procedure: The importance of balancing potency vs MRSA and cytotoxicity led us to examine a subset of compounds more thoroughly for toxicity against human embryonic kidney cell line HEK293. […] Dmax is a parameter that quantifies toxicity at the highest tested concentration (32 μg/mL for all compounds), calculated as reciprocal percentage of viable cells (100 – viability%), where cells either were allowed to recover or viability was measured immediately after treatment. […] Our efforts focused on trying to replicate the original toxicity experiments (by CO-ADD) with tamoxifen using a protocol modified for use with 96-well plates. Given the variability of protocols and results in the literature,[28] it was important to compare with a standard protocol we have reliably used in our own laboratories.[29]−[33] […] Truly “non-toxic” compounds might be expected to show Dmax < 50% for all experiment variations, e.g., 861. […] A large spread of Dmax values comparing recovery and non-recovery conditions larger than 20% is perhaps indicative of a mechanism of toxicity that persists beyond exposure, i.e., cytotoxic compounds that continue to induce toxicity as cells recover and restart dividing, for example, compounds 865, 870, 871, 980, and 981. […] This variability could be driven by interference of the compounds with the fluorescence readout or resorufin build-up as previously described.[27]
HEK293 cells (ATCC, UK) at passage 32 were a kind gift from Dr. Ben Allsop from the Translational Research Office at University College London. Cells were tested for mycoplasma using a MycoAlert Detection Kit (Lonza, Switzerland) as per manufacturer instructions, frozen stocks were stored in liquid nitrogen, and cells were re-tested whenever a new aliquot was thawed.
Cells were maintained in DMEM (Sigma-Aldrich, UK) supplemented with 10% heat-inactivated FBS (Sigma-Aldrich, UK), 1% GlutaMax (ThermoFisher, UK), and 1% sodium pyruvate (Lonza, UK) without antibiotics in an incubator at 37 °C and 5% CO2. Media was changed every 2 days, and cells were passaged every 3–4 days at a subcultivation ratio of 1:10, by detaching the cells with phenol-free TrypLE Express (ThermoFisher, UK), after washing with HBSS Ca^2+/Mg^2+ (ThermoFisher, UK). Up to 55 passages were used throughout the experiments.
(a) Cell seeding: At subculture, a dilute solution of cells was counted using Trypan Blue (Sigma-Aldrich, UK) and a hemocytometer. Cells were further diluted to 7000 or 50 000 cells/mL for experiments.
For recovery experiments, 700 cells (100 μL) were seeded in 96-well plates and incubated for 48 h while cells reached exponential phase.
For non-recovery experiments, 5000 cells (100 μL) were seeded in 96-well plates and incubated for 48 h while cells reached confluence. This is the same number of cells as per the CO-ADD protocol where 384-well plates were used, but we extended the growth time to 48 h to produce a similar confluency.
Stock solutions were diluted 100 times (to 1% DMSO) to 32 μg/mL in full medium (vortexed briefly) and then serially diluted using a digital pipet (Explorer, Eppendorf, Germany) at a dilution factor of 2 to a final concentration of […].
(c) Dosing experiments: At the specified time after seeding, media was removed from cells, cells were washed with HBSS Ca^2+/Mg^2+ (100 μL), and 100 μL of diluted compounds were added as per Supporting Information - Biology, Figure S4, and incubated for 24 h.
After treatment, solutions were removed, and cells were washed with HBSS Ca^2+/Mg^2+. For non-recovery experiments, viability was determined immediately as described below.
For recovery experiments, fresh media was added to plates (100 μL) and cells were returned to the incubator for another 72 h, after which viability was recorded as described below.
i. MTT assay: 3-[4,5-Dimethylthiazol-2-yl]-2,5-diphenyltetrazolium bromide (MTT) (Sigma-Aldrich, UK) was dissolved in sterile PBS at 5 mg/mL with sonication (20 min), protected from light. […]

In the case of `COc1cccc2c1C(=O)c1c(O)c3c(c(O)c1C2=O)C[C@@](O)(C(=O)CO)C[C@@H]3O[C@H]1C[C@H](N)[C@H](O)[C@H](C)O1` [doxorubicin], the “effect on DNA molecular beacon melting temperature” value (molecular beacon DNA) is reported as “dose–response behavior”.

Compound `OC(Cn1cncn1)(Cn1cncn1)c1ccc(F)cc1F` [Fluconazole] has an MIC [1] of 8 µg/mL.

With `CC[C@H](C)[C@H](NC(=O)CN)C(=O)NCC(=O)N[C@@H](C)C(=O)N[C@H](C(=O)N[C@@H](CC(C)C)C(=O)N[C@@H](CCCCN)C(=O)N[C@H](C(=O)N[C@@H](CC(C)C)C(=O)N[C@H](C(=O)N[C@H](C(=O)NCC(=O)N[C@@H](CC(C)C)C(=O)N1CCC[C@H]1C(=O)N[C@@H](C)C(=O)N[C@@H](CC(C)C)C(=O)N[C@H](C(=O)N[C@@H](CO)C(=O)N[C@@H](Cc1c[nH]c2ccccc12)C(=O)N[C@H](C(=O)N[C@@H](CCCCN)C(=O)N[C@@H](CCCNC(=N)N)C(=O)N[C@@H](CCCCN)C(=O)N[C@@H](CCCNC(=N)N)C(=O)N[C@@H](CCC(N)=O)C(=O)N[C@@H](CCC(N)=O)C(N)=O)[C@@H](C)CC)[C@@H](C)CC)[C@@H](C)O)[C@@H](C)O)C(C)C)C(C)C` [Melittin] the “HC10 (concentration at 10% haemolysis)” value (human red blood cells) was 2.7 µg/mL.

For `CC/C(=C(\c1ccccc1)c1ccc(OCCN(C)C)cc1)c1ccccc1` [tamoxifen, reference compound], the CC50 at 20 h (in vitro) was 9 µg/mL (≈ 24.2 µM) and the CC50 at 24 h [2] was 5.3 to 15.5 µg/mL (≈ 14.3 to 41.7 µM).
